pKi: −log10 of the molar value. Like-named read-outs stand apart in the source and are kept apart here.
How the values were obtained:
[1] = target: T1, recombinant human ALK5 (TGF-βR1) protein (Homo sapiens, UniProt P36897); assay: Biochemical ALK5 (TGF-βR1) assay to measure pKi (LANCE Ultra ULight kinase assay); details: apparent pKi from pIC50 by Cheng-Prusoff; for Ki: read-out: ALK5 pKi (converted)
T1 construct: purchased Life Technologies PR9075A
T1 sequence (P36897 34-503): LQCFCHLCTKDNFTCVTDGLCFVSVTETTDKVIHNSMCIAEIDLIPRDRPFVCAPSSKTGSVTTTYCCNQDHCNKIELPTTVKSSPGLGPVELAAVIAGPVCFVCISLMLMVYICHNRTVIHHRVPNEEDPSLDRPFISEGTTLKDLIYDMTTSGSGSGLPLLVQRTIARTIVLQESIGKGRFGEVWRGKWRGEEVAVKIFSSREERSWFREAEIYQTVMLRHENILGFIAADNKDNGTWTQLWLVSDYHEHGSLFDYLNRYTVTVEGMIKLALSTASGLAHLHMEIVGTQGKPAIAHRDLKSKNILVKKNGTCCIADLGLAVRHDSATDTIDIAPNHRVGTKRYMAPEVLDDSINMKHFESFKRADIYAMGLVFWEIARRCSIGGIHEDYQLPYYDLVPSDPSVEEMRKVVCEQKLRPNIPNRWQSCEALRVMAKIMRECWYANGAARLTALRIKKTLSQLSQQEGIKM
How it was run: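 After a 60 min room-temperature preincubation of ALK5 with compound, phosphorylation proceeds 60 min at 37 °C on ATP addition (125 μM as 5× stock). Detection: Eu-labelled phospho-Thr1342 Topo IIα antibody in EDTA buffer, pH 7.0; emission 665 nm.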

[2] = system: TGF-β-stimulated SMAD3 phosphorylation in BEAS-2B cells; assay: Cellular ALK5 potency assay, inhibition of TGF-β stimulated pSMAD3 formation in BEAS-2B cells; format: cell-based; details: Homo sapiens, read-out: BEAS2B pIC50 (converted)
How it was run: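 Cells seeded overnight; rinse with supplemented HBSS; compound 1 h at 37 °C; TGF-β 10 ng/mL final, 30 min; lyse; AlphaLISA acceptor and detector beads 2 h apart, read next day. Potency expressed as pIC50.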

[3] = inhibition of TGF-β stimulated pSMAD3 formation, BEAS-2B cells

Row | SMILES | Ki [1] [nM] | IC50 [2, 3] [nM] | pKi ([1]; ALK5 pKi) | IC50 ([2]; BEAS-2B) [nM]
1 | Cc1nc(-c2n[nH]cc2-c2ccc3ncc(-c4cnc5n4CCNC5)cc3n2)ccc1F [Compound 245, 2-[3-(5-fluoro-6-methyl-2-pyridyl)-1H-pyrazol-4-yl]-7-(5,6,7,8-tetrahydroimidazo[1,2-a]pyrazin-3-yl)-1,5-naphthyridine] | 0.0398 to 0.316 | 25.1 to 158 |  | 
2 | Cc1cccc(-c2n[nH]cc2-c2ccc3ncc(C4C[C@H]5CC[C@@H](C4)N5)cc3n2)n1 (mixture of isomers) [Compound 350, 2-[3-(6-methyl-2-pyridyl)-1H-pyrazol-4-yl]-7-[rac-(1S,5R)-8-azabicyclo[3.2.1]octan-3-yl]-1,5-naphthyridine] |  |  | 7.50 to 8.40 | 200 to 1260
3 | Cc1cccc(-c2[nH]ncc2-c2ccc3ncc(C(=O)OCC4CNC4)cc3n2)n1 [Compound 419, azetidin-3-ylmethyl 6-[5-(6-methyl-2-pyridyl)-1H-pyrazol-4-yl]-1,5-naphthyridine-3-carboxylate] | 0.0398 to 0.316 | 25.1 to 158 |  | 
4 | Cc1nc(-c2n[nH]cc2-c2ccc3ncc(-c4ncn5c4NCC5)cc3n2)ccc1F [Compound 284, 7-(2,3-dihydro-1H-imidazo[1,5-a]imidazol-7-yl)-2-[3-(5-fluoro-6-methyl-2-pyridyl)-1H-pyrazol-4-yl]-1,5-naphthyridine] | 0.0398 to 0.316 | 25.1 to 158 |  | 
5 | Cc1cccc(-c2n[nH]cc2-c2ccc3ncc(N4CCC(O)C4)cc3n2)n1 (racemic) [Compound 312, rac-(3R)-1-[6-[3-(6-methyl-2-pyridyl)-1H-pyrazol-4-yl]-1,5-naphthyridin-3-yl]pyrrolidin-3-ol] | < 0.0316 | < 20 |  | 
6 | Cc1cccc(-c2n[nH]cc2-c2ccc3ncc(NCC4CCCCN4)cc3n2)n1 (stereo not drawn) [Compound 375, 6-[3-(6-methyl-2-pyridyl)-1H-pyrazol-4-yl]-N-(2-piperidylmethyl)-1,5-naphthyridin-3-amine] | 0.0398 to 0.316 | 25.1 to 158 |  | 
7 | Cc1cccc(-c2[nH]cnc2-c2ccc3ncc(NC(=O)C4CC(N)C4)cc3c2)n1 (stereo not drawn) [Compound 3, 3-amino-N-[6-[5-(6-methyl-2-pyridyl)-1H-imidazol-4-yl]-3-quinolyl]cyclobutanecarboxamide] | 0.0398 to 0.316 | 200 to 1260 |  | 
8 | Cc1cccc(-c2n[nH]cc2-c2ccc3ncc(-c4ncc5n4CCNC5)cc3n2)n1 [Compound 143, 2-[3-(6-methyl-2-pyridyl)-1H-pyrazol-4-yl]-7-(5,6,7,8-tetrahydroimidazo[1,5-a]pyrazin-3-yl)-1,5-naphthyridine] | 0.0398 to 0.316 | 200 to 1260 |  | 
9 | Cc1cccc(-c2[nH]cnc2-c2ccc3ncc(-c4cnn(C5CCCNC5)c4)cc3c2)n1 (stereo not drawn) [Compound 405, 6-[5-(6-methyl-2-pyridyl)-1H-imidazol-4-yl]-3-[1-(3-piperidyl)pyrazol-4-yl]quinoline] | < 0.0316 | 25.1 to 158 |  | 
10 | Cc1cccc(-c2nnn(Cc3ccccc3)c2-c2ccc3ncc(-c4cnn(C5CCCNC5)c4)cc3n2)n1 (stereo not drawn) [Compound 216, 2-(1-benzyl-4-(6-methylpyridin-2-yl)-1H-1,2,3-triazol-5-yl)-7-(1-(piperidin-3-yl)-1H-pyrazol-4-yl)-1,5-naphthyridine] | 0.0398 to 0.316 | 25.1 to 158 |  | 
11 | Cc1cccc(-c2n[nH]cc2-c2ccc3ncc(N4CC5CNCC54)cc3n2)n1 (stereo not drawn) [Compound 260, 7-(3,6-diazabicyclo[3.2.0]heptan-6-yl)-2-[3-(6-methyl-2-pyridyl)-1H-pyrazol-4-yl]-1,5-naphthyridine] | 0.398 to 3.16 | 200 to 1260 |  | 
12 | Cc1cccc(-c2c(-c3ccc4ncc(NCCN5CCN(C(C)C)CC5)cc4c3)nnn2Cc2ccccc2)n1 [Compound 351, 6-[1-benzyl-5-(6-methyl-2-pyridyl)triazol-4-yl]-N-[2-(4-isopropylpiperazin-1-yl)ethyl]quinolin-3-amine] | 3.98 to 31.6 | 200 to 1260 |  | 

Second part, led by results:

Row | Ki [1] [nM] | SMILES | IC50 [2, 3] [nM] | pKi ([1]; ALK5 pKi) | IC50 ([2]; BEAS-2B) [nM]
13 | 0.0398 to 0.316 | Cc1cccc(-c2[nH]cnc2-c2ccc3ncc(C(=O)O[C@H]4CC[C@H](N)CC4)cc3c2)n1 [Compound 763, (4-aminocyclohexyl) 6-[5-(6-methyl-2-pyridyl)-1H-imidazol-4-yl]quinoline-3-carboxylate] | 25.1 to 158 |  | 
14 | 0.0398 to 0.316 | Cc1cccc(-c2n[nH]cc2-c2ccc3ncc(-c4nc5c([nH]4)CCNCC5)cc3n2)n1 [Compound 642, 2-[6-[3-(6-methyl-2-pyridyl)-1H-pyrazol-4-yl]-1,5-naphthyridin-3-yl]-1,4,5,6,7,8-hexahydroimidazo[4,5-d]azepine] | 200 to 1260 |  | 
15 | < 0.0316 | Cc1cccc(-c2[nH]cnc2-c2ccc3ncc(-c4cc(C(=O)O[C@H]5CCNC5)cs4)cc3c2)n1 [Compound 885, [(3S)-pyrrolidin-3-yl] 5-[6-[5-(6-methyl-2-pyridyl)-1H-imidazol-4-yl]-3-quinolyl]thiophene-3-carboxylate] | 25.1 to 158 |  | 
16 | 0.0398 to 0.316 | Cc1cccc(-c2[nH]cnc2-c2ccc3ncc(-c4ccc(CN5C[C@@H](C)N[C@@H](C)C5)nc4)cc3c2)n1 [Compound 1045, 3-(6-(((3S,5R)-3,5-dimethylpiperazin-1-yl)methyl)pyridin-3-yl)-6-(5-(6-methylpyridin-2-yl)-1H-imidazol-4-yl)quinoline] | 25.1 to 158 |  | 
17 | 0.0398 to 0.316 | Cc1cccc(-c2[nH]cnc2-c2ccc3ncc(-c4ncc(CN5C[C@@H](C)N[C@@H](C)C5)s4)cc3c2)n1 [Compound 1028, 5-[[(3S,5R)-3,5-dimethylpiperazin-1-yl]methyl]-2-[6-[5-(6-methyl-2-pyridyl)-1H-imidazol-4-yl]-3-quinolyl]thiazole] | < 20 |  | 
18 | < 0.0316 | Cc1nc(-c2n[nH]cc2-c2ccc3ncc(-c4cnn(C[C@H]5CCC[C@@H](N)C5)c4)cc3n2)ccc1F (racemic) [Compound 463, rac-(1R,3S)-3-[[4-[6-[3-(5-fluoro-6-methyl-2-pyridyl)-1H-pyrazol-4-yl]-1,5-naphthyridin-3-yl]pyrazol-1-yl]methyl]cyclohexanamine] | 25.1 to 158 |  | 
19 | < 0.0316 | Cc1cccc(-c2[nH]cnc2-c2ccc3ncc(-c4csc(C(=O)OC[C@@H]5CCCCN5)c4)cc3c2)n1 [Compound 1213, [(2S)-2-piperidyl]methyl 4-[6-[5-(6-methyl-2-pyridyl)-1H-imidazol-4-yl]-3-quinolyl]thiophene-2-carboxylate] | 25.1 to 158 |  | 
20 | 0.398 to 3.16 | Cc1cccc(-c2n[nH]cc2-c2ccc3nccc(NC(=O)CCCN4CCOCC4)c3n2)n1 [Compound 842, N-[6-[3-(6-methyl-2-pyridyl)-1H-pyrazol-4-yl]-1,5-naphthyridin-4-yl]-4-morpholino-butanamide] | 25.1 to 158 |  | 
21 | 0.0398 to 0.316 | Cc1cccc(-c2[nH]cnc2-c2ccc3ncc(-c4ncc(C(=O)OCC5CNC5)s4)cc3c2)n1 [Compound 1236, azetidin-3-ylmethyl 2-[6-[5-(6-methyl-2-pyridyl)-1H-imidazol-4-yl]-3-quinolyl]thiazole-5-carboxylate] | 25.1 to 158 |  | 
22 | < 0.0316 | Cc1cccc(-c2[nH]cnc2-c2ccc3ncc(C4=CCC(O)CC4)cc3c2)n1 (stereo not drawn) [Compound 432, 4-[6-[5-(6-methyl-2-pyridyl)-1H-imidazol-4-yl]-3-quinolyl]cyclohex-3-en-1-ol] | < 20 |  | 
23 | 0.0398 to 0.316 | CNC1CCCN(c2cnc3ccc(-c4c[nH]nc4-c4cccc(C)n4)nc3c2)C1 (stereo not drawn) [Compound 606, N-methyl-1-[6-[3-(6-methyl-2-pyridyl)-1H-pyrazol-4-yl]-1,5-naphthyridin-3-yl]piperidin-3-amine] | 25.1 to 158 |  | 
24 | 0.0398 to 0.316 | Cc1nc(-c2n[nH]cc2-c2ccc3ncc(N4CCC(N(C)C)CC4)cc3n2)ccc1F [Compound 514, 1-[6-[3-(5-fluoro-6-methyl-2-pyridyl)-1H-pyrazol-4-yl]-1,5-naphthyridin-3-yl]-N,N-dimethyl-piperidin-4-amine] | 25.1 to 158 |  | 
25 | 0.0398 to 0.316 | Cc1cccc(-c2[nH]ncc2-c2ccc3ncc(OC(=O)[C@H]4C[C@@H](N)C4)cc3c2)n1 [Compound 1032, 6-(5-(6-methylpyridin-2-yl)-1H-pyrazol-4-yl)quinolin-3-yl (1s,3s)-3-aminocyclobutane-1-carboxylate] |  |  | < 20
26 | 0.398 to 3.16 | Cc1cccc(-c2[nH]ncc2-c2ccc3nccc(C(=O)OC[C@H]4CCCCN4)c3c2)n1 [Compound 1095, [(2R)-2-piperidyl]methyl 6-[5-(6-methyl-2-pyridyl)-1H-pyrazol-4-yl]quinoline-4-carboxylate] | 25.1 to 158 |  | 
27 | < 0.0316 | Cc1cccc(-c2n[nH]cc2-c2ccc3ncc(N4CCC(N)C4)cc3n2)n1 (stereo not drawn) [Compound 626, 1-[6-[3-(6-methyl-2-pyridyl)-1H-pyrazol-4-yl]-1,5-naphthyridin-3-yl]pyrrolidin-3-amine] | 25.1 to 158 |  | 

— patent US11590116B2 (THERAVANCE BIOPHARMA R&D IP, LLC, priority 2019, dated 2023)
